Data from PubChem BioAssay AID1259407 (Chemical Carcinogenesis Research Information System (CCRIS), 2018).
The source made the active and inactive calls. No rule for the calls is given here.

Test system: CCRIS mutagenicity, Ames/micronucleus/aberration tests
Assay: CCRIS mutagenicity studies

Measured: mutagenic call

O=S(O)O
active: Test System: AMES SALMONELLA TYPHIMURIUM, Strain/Indicator: HISG46, Metabolic Activation: NONE, Method: PREINCUBATION active; positive | Test System: AMES SALMONELLA TYPHIMURIUM, Strain/Indicator: HISG46, Metabolic Activation: NONE, Method: PREINCUBATION (30-120 MIN) active; positive | Test System: AMES SALMONELLA TYPHIMURIUM, Strain/Indicator: HISG46, Metabolic Activation: NONE, Method: STANDARD PLATE active; positive | Test System: AMES SALMONELLA TYPHIMURIUM, Strain/Indicator: TA92, Metabolic Activation: NONE, Method: PREINCUBATION (30-90 MIN) active; positive | Test System: AMES SALMONELLA TYPHIMURIUM, Strain/Indicator: TA1950, Metabolic Activation: NONE, Method: PREINCUBATION (30-90 MIN) active; positive | Test System: AMES SALMONELLA TYPHIMURIUM, Strain/Indicator: TA1950, Metabolic Activation: NONE, Method: STANDARD PLATE active; positive | Test System: AMES SALMONELLA TYPHIMURIUM, Strain/Indicator: TA2410, Metabolic Activation: NONE, Method: PREINCUBATION (30-90 MIN) active; positive | Test System: AMES SALMONELLA TYPHIMURIUM, Strain/Indicator: TS24, Metabolic Activation: NONE, Method: PREINCUBATION (30-90 MIN) active; positive | Test System: AMES SALMONELLA TYPHIMURIUM, Strain/Indicator: TS24, Metabolic Activation: NONE, Method: STANDARD PLATE active; positive
inactive: Test System: AMES SALMONELLA TYPHIMURIUM, Strain/Indicator: GW19, Metabolic Activation: NONE, Method: PREINCUBATION (30-90 MIN) inactive; negative | Test System: AMES SALMONELLA TYPHIMURIUM, Strain/Indicator: GW19, Metabolic Activation: NONE, Method: STANDARD PLATE inactive; negative | Test System: AMES SALMONELLA TYPHIMURIUM, Strain/Indicator: TA92, Metabolic Activation: NONE, Method: STANDARD PLATE inactive; negative | Test System: AMES SALMONELLA TYPHIMURIUM, Strain/Indicator: TA97, Metabolic Activation: NONE, Method: PREINCUBATION inactive; negative | Test System: AMES SALMONELLA TYPHIMURIUM, Strain/Indicator: TA97, Metabolic Activation: RAT, LIVER, S-9, AROCLOR 1254, Method: PREINCUBATION inactive; negative | Test System: AMES SALMONELLA TYPHIMURIUM, Strain/Indicator: TA98, Metabolic Activation: NONE, Method: STANDARD PLATE inactive; negative | Test System: AMES SALMONELLA TYPHIMURIUM, Strain/Indicator: TA98, Metabolic Activation: RAT, LIVER, S-9, AROCLOR 1254, Method: STANDARD PLATE inactive; negative | Test System: AMES SALMONELLA TYPHIMURIUM, Strain/Indicator: TA100, Metabolic Activation: NONE, Method: STANDARD PLATE inactive; negative | Test System: AMES SALMONELLA TYPHIMURIUM, Strain/Indicator: TA100, Metabolic Activation: RAT, LIVER, S-9, AROCLOR 1254, Method: STANDARD PLATE inactive; negative | Test System: AMES SALMONELLA TYPHIMURIUM, Strain/Indicator: TA102, Metabolic Activation: NONE, Method: PREINCUBATION inactive; negative | Test System: AMES SALMONELLA TYPHIMURIUM, Strain/Indicator: TA102, Metabolic Activation: RAT, LIVER, S-9, AROCLOR 1254, Method: PREINCUBATION inactive; negative | Test System: AMES SALMONELLA TYPHIMURIUM, Strain/Indicator: TA1535, Metabolic Activation: NONE, Method: STANDARD PLATE inactive; negative | Test System: AMES SALMONELLA TYPHIMURIUM, Strain/Indicator: TA1535, Metabolic Activation: RAT, LIVER, S-9, AROCLOR 1254, Method: STANDARD PLATE inactive; negative | Test System: AMES SALMONELLA TYPHIMURIUM, Strain/Indicator: TA1537, Metabolic Activation: NONE, Method: STANDARD PLATE inactive; negative | Test System: AMES SALMONELLA TYPHIMURIUM, Strain/Indicator: TA1537, Metabolic Activation: RAT, LIVER, S-9, AROCLOR 1254, Method: STANDARD PLATE inactive; negative | Test System: AMES SALMONELLA TYPHIMURIUM, Strain/Indicator: TA1538, Metabolic Activation: NONE, Method: STANDARD PLATE inactive; negative | Test System: AMES SALMONELLA TYPHIMURIUM, Strain/Indicator: TA1538, Metabolic Activation: RAT, LIVER, S-9, AROCLOR 1254, Method: STANDARD PLATE inactive; negative | Test System: AMES SALMONELLA TYPHIMURIUM, Strain/Indicator: TA2410, Metabolic Activation: NONE, Method: STANDARD PLATE inactive; negative | Test System: E. COLI, Strain/Indicator: WP2, Metabolic Activation: NONE, Method: STANDARD PLATE inactive; negative | Test System: E. COLI, Strain/Indicator: WP2, Metabolic Activation: RAT, LIVER, S-9, AROCLOR 1254, Method: STANDARD PLATE inactive; negative

ClC1=C(Cl)[C@]2(Cl)C3C(Cl)C(Cl)CC3[C@@]1(Cl)C2(Cl)Cl (stereo not given in full)
active: Test System: AMES SALMONELLA TYPHIMURIUM, Strain/Indicator: TA100, Metabolic Activation: NONE, Method: DESICCATOR active; positive
